The values that follow come from patent US9101576B2, “Treatment of inflammatory diseases” (The University of Chicago, priority 2006, dated 2015).

One assay deals with medullary thymocytes. The conditions noted are these: cited from earlier work.
In assay [1] the test system is B7-2 deficient NOD mice. Description: Electrophysiological studies of sciatic nerve function in vivo. Also on record: species or system mouse. The conditions noted are these: FTY720 1 mg/kg oral gavage once daily for 1 month. Here is the method: (§1) Female B7-2 deficient NOD mice were used since they are more prone to develop SAP than their male counterparts (Salomon et al., supra). The mice were 7 months of age at the start of the study. Animals were given FTY720 (aqueous solution) at doses of 0.3 mg/kg or 1 mg/kg or vehicle alone by oral gavage once daily for 1 month. The concentrations were chosen based on dose-response studies with regard to the depletion of peripheral lymphocytes, and data from EAE studies in rats (Brinkmann et al., 2002; Fujino et al., 2003).
Electrophysiological studies were performed to assess the effect of FTY720 on sciatic nerve function in vivo in a subset of the study animals. […] FIG. 6 likewise illustrates that FTY720 treatment improves DL and CV (FIG. 6B, showing a summary of the results from experiments performed on 12 nerves from 6 water-treated mice and 14 nerves from 7 FTY720-treated mice) but not the amplitude of sciatic CMAPs (FIG. 6A).

The subject of assay [2] is B7-2 deficient NOD mice. Briefly: Clinical scores and grip strength in spontaneous autoimmune polyneuropathy (SAP). Format: in vivo, mouse. Here is the method: as §1
To determine the effect of FTY720 on clinical scores and grip strength of B7-2 deficient NOD mice, both qualitative and quantitative assessment was performed by blinded lab personnel. For qualitative assessment, a nominal scale (with 0 as normal and 5 as death) described by other investigators (Zhu et al., 2001a) was used. For quantitative assessment, hindlimb and forelimb strength was measured with a grip strength meter (Columbus Instruments). […] Similar results were observed when forelimb and hindlimb strength was assessed quantitatively.

Assay [3] deals with peripheral blood lymphocyte. Description: Induction of peripheral blood lymphopenia. Type of assay: in vivo, mouse. Here is the method: as §1
The effectiveness of FTY720 was also monitored by the induction of peripheral blood lymphopenia. The peripheral blood lymphocyte count was decreased to 50-60% of vehicle-treated ones by FTY720 (0.3 mg/kg) (n=4) and to 25-30% by FTY720 (1 mg/kg) (n=3).

Assay [4] relates to B7-2 deficient NOD mice. Briefly: Histological evaluation of inflammatory cell infiltration in sciatic nerve sections. Format: in vivo, mouse. The conditions noted are these: 1.0 mg/kg; quantitative (p<0.02) and semi-quantitative (p<0.003) method; n=7. The method, then:
as §1
To further evaluate the effect of FTY720 on B7-2 deficient NOD mice, histological evaluation was performed to assess inflammatory cell infiltration. […] For quantitative method, tissue areas were measured by image analysis and the number of inflammatory cells counted at ×20 magnification. The results were averaged and expressed as cells per mm^2 tissue section. For semi-quantitative method, inflammation was graded as: 1, a few scattered mononuclear inflammatory cells often subperineurial; 2, perivenular cuffing with mononuclear inflammatory cells (one or two foci); 3, extensive multifocal perivenular cuffing and widespread endoneurial inflammation.

For assay [5], the system named is B7-2 deficient NOD mice. Briefly: Demyelination and loss of myelinated fibers in epon sections. The conditions noted are these: 1.0 mg/kg, p<0.015, n=7. Format: in vivo, mouse. The method, then: as §1
Epon sections were prepared from vehicle-treated mice (n=6) and mice treated with 1.0 mg/kg FTY720 (n=7). […] These differences were statistically different with a p value of less than 0.015. The percentage of loss of myelinated fibers in epon sections was assessed by a blinded observer using a grid. Demyelination was graded as follows: 1, isolated demyelinated axons perivascular or scattered; 2, many foci of perivascular demyelination; 3, extensive demyelination, perivascular and confluent.

The next assay relates to lymphocyte. The conditions noted are these: cited from earlier work.
In the next assay the test system is T cell. The conditions noted are these: cited from earlier work.
The test system of the next assay is S1P receptors. The conditions noted are these: transfected cells expressing individual S1P receptors; cited from earlier work.
Assay [6] has as its system neonatal DRG-SC co-cultures. Description: Myelination in neonatal DRG-SC co-cultures. Format: cell-based. The text has this:
TNF-α and IFN-γ (labeled as cytokines) acted synergistically to decrease cell viability via NOS induction and ceramide accumulation in immortalized SCs (FIG. 4) (Nagano et al., 2001). Neither cytokine alone induced cell death. These cytokines also exerted a synergistic inhibitory action on myelination in neonatal DRG-SC co-cultures, which is evident after 3 days of treatment.

Where only a bound is given, the exact number is not on record here.

For `CCCCCCCOc1ccc(CC[C@@](C)(N)CO)cc1` [AAL(R)], the “time to downregulation of CD69” value with medullary thymocytes is not above 2 h.
For the compound `CCCCCCCCc1ccc(CCC(N)(CO)CO)cc1` [FTY720, 2-amino-2-[2-(4-octylphenyl)ethyl]-1,3-propanediol], the “Distal Latency” value in the assay on B7-2 deficient NOD mice [1] (sciatic nerve, vehicle 2.59 ± 0.3, p < 0.02) is listed as 1.58 ± 0.3 ms. Further, the “Conduction Velocity” value in the assay with B7-2 deficient NOD mice [1] (sciatic nerve, vehicle 14.7 ± 3.0, p < 0.01) amounted to 22.8 ± 3.2 m/s. In the assay with B7-2 deficient NOD mice [1] (vehicle 3.75 ± 1.8), the “Amplitude of sciatic CMAPs” value is 3.8 ± 0.7 mV. In addition, the “difference in clinical score between 7 months and 8 months” value in the assay on B7-2 deficient NOD mice [2] (0.3 mg/kg oral once daily for 1 month, p less than 0.03, n=5) is recorded as “statistically significant”. Also, the “forelimb and hindlimb grip strength vs vehicle or 0.3 mg/kg” value with B7-2 deficient NOD mice [2] (1.0 mg/kg oral once daily for 1 month, grip strength meter) is “increased grip strength”. The “clinical scores, month 7 vs month 8” value in the assay with B7-2 deficient NOD mice [2] (1.0 mg/kg oral once daily for 1 month, scale 0 normal to 5 death, n=10) is “did not increase between month 7 and month 8”. Also, the “peripheral blood lymphocyte count, % of vehicle-treated” value is 50-60% in assay [3] (0.3 mg/kg oral once daily, n=4) and 25-30% in [3] (1 mg/kg oral once daily, n=3). The “inflammatory cell infiltration vs water-treated mice” value in the assay on B7-2 deficient NOD mice [4] is listed as “decreased inflammatory cell infiltration”. In addition, the “percentage of myelinated fibers lost vs vehicle” value in the assay with B7-2 deficient NOD mice [5] is recorded as “decrease in the percentage of myelinated fibers lost”. Also, the “concentration that elicits lymphocyte apoptosis” value in the assay on lymphocyte is more than 3 µM. In the assay on T cell, the “T cell chemotactic activity” value was “lacks T cell chemotactic activity”.
As to `CCCCCCCCc1ccc(CC[C@](N)(CO)COP(=O)(O)O)cc1` [FTY720-P], the “agonist activity at S1P receptors” value in the assay on S1P receptors is given as “potent agonist of S1P receptors with the exception of S1P2”.
On to `CCCCCCCCCCCCC/C=C/[C@@H](O)[C@@H](N)COP(=O)(O)O` [S1P, sphingosine 1-phosphate], for which, in the assay on T cell (high concentrations are inhibitory), the “concentration that elicits T cell chemotaxis” value was not above 0.1 µM.
In the case of IFN-γ: pro-inflammatory Th1 cytokine, in [6] (IFN-γ at 50-300 U/ml alone), the effect on myelination entry is recorded as “No effect on myelination”.
For the compound TNF-α, the effect on myelination result in assay [6] (TNF-α 10 ng/ml alone) is “No effect on myelination”; in assay [6] (TNF-α 100 ng/ml alone) it was “modest inhibitory action”.
